Experimental data published in the NIST ThermoML archive (doi:10.1016/j.tca.2013.08.017).

How the values were obtained:
[1] = 101.33 kPa, Crystal, X-ray diffraction
[2] = molar heat capacity at constant pressure; details: 101.33 kPa, Small sample (50 mg) DSC

CC(C)(C)n1ncc2c(-c3ccccc3)n[nH]c(=O)c21
Details | mass density [kg/m3]
[1], 296 K | 1298

[2], Crystal
Details | molar heat capacity at constant pressure [J/K/mol]
273 K | 944.5
283 K | 1034.5
293 K | 1124.7
303 K | 1216.4
313 K | 1310.8
323 K | 1409.1
333 K | 1512.5
343 K | 1622.1
353 K | 1739.2
363 K | 1865
373 K | 2000.7
383 K | 2147.5
393 K | 2306.5
403 K | 2479
413 K | 2666.2
423 K | 2869.3

CC(C)(C)n1ncc2c(C(F)(F)F)n[nH]c(=O)c21
Details | mass density [kg/m3]
[1], 293 K | 1451

[2]
Details | molar heat capacity at constant pressure [J/K/mol]
273 K, Crystal | 174
283 K, Crystal | 202.9
293 K, Crystal | 231.9
303 K, Crystal | 260.8
313 K, Crystal | 289.8
323 K, Crystal | 318.7
333 K, Crystal | 347.6
343 K, Crystal | 376.6
353 K, Crystal | 405.5
363 K, Crystal | 434.4
373 K, Crystal | 463.4
383 K, Crystal | 492.3
393 K, Crystal | 521.2
403 K, Crystal | 550.2
413 K, Crystal | 579.1
423 K, Crystal | 608.1
448 K, Liquid | 813.3
458 K, Liquid | 923.4
463 K, Liquid | 978.4
